From patent US20120065187A1 (ALCON RESEARCH, LTD, priority 2008, published 2012)
Counter-ions that a name gives are not always drawn.

How the values were obtained:
human H4 = molecular target: T1, human H4 (Homo sapiens, UniProt Q9H3N8); experiment: In vitro histamine receptor cell-based assay (aequorin bioluminescence), H4 antagonism; settings: CHO-K1 cells expressing human H4, aequorin and Gα16; histamine at EC80; read-out: H4 Antagonist EC50
T1 construct: host or cells: CHO-K1
Summary of the method: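 Antagonism read as loss of aequorin luminescence after histamine (EC80 final) addition, following 15 min room-temperature compound pretreatment of coelenterazine-h-loaded (5 μM) CHO-K1 cells co-expressing human H4 and Gα16. Efficacy given relative to 10 μM JNJ7777120; agonism excluded in separate no-histamine runs.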

human H1 = molecular target: T2, human H1 (Homo sapiens, UniProt P35367); experiment: In vitro histamine receptor cell-based assay (aequorin bioluminescence), H1 antagonism; settings: CHO-K1 cells expressing human H1 and aequorin; histamine at EC80; read-out: H1 Antagonist EC50
T2 construct: host or cells: CHO-K1
T2 sequence (P35367 whole entry): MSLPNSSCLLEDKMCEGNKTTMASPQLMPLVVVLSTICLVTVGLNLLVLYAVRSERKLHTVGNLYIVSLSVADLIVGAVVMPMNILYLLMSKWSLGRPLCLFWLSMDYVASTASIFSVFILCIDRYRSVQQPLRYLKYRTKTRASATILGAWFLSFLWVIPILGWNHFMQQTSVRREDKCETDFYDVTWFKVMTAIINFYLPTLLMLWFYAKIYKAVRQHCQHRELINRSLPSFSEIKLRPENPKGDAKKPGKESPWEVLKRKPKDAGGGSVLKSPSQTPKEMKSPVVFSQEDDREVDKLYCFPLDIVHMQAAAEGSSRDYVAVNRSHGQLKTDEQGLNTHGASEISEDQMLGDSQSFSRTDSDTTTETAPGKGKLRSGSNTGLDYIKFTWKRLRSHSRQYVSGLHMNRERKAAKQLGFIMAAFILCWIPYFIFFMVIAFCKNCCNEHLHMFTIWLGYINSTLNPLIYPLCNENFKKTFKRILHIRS
Summary of the method: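 Antagonism read as drop in aequorin luminescence after histamine challenge at a predetermined EC80, following 15 min compound pretreatment at room temperature. Cells: CHO-K1 carrying human H1, or H4 with Gα16; signal as AUC or amplitude, normalised to 10 μM diphenhydramine (H1) or JNJ7777120 (H4).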

T1 sequence (Q9H3N8 whole entry): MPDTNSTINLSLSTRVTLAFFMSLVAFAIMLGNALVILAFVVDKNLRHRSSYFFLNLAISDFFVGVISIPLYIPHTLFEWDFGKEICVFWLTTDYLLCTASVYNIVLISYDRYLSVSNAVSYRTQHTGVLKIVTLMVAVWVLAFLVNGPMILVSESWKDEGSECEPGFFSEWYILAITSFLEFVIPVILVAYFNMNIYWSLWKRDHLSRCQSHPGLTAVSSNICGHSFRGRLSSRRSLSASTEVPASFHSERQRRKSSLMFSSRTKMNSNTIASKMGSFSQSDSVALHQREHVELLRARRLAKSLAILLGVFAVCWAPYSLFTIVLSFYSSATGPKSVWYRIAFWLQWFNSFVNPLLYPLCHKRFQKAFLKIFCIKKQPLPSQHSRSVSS

## Cc1nc2c(N3CCNCC3)nc3ccc(C(F)(F)F)cc3c2o1 [Example 215, 2-methyl-4-(piperazin-1-yl)-8-(trifluoromethyl)oxazolo[4,5-c]quinoline]
Human H4
  EC50: < 10 µM
Human H1
  EC50: > 10 µM

## CN1CCCN(c2nc3ccc(Cl)cc3n3cnnc23)CC1 [Example 68, 8-chloro-4-(4-methyl-1,4-diazepan-1-yl)-[1,2,4]triazolo[4,3-a]quinoxaline]
Human H4
  EC50: < 10 µM
Human H1
  EC50: > 10 µM

## CN1CCN(c2nc3cc(Cl)ccc3c3nccnc23)CC1 [Example 250, 8-chloro-5-(4-methylpiperazin-1-yl)pyrazino[2,3-c]quinoline]
Human H4
  EC50: < 10 µM
Human H1
  EC50: < 10 µM

## CC(C)c1ccc2nc(N3CCN(C)CC3)c3nncn3c2c1 [Example 173, 8-isopropyl-4-(4-methylpiperazin-1-yl)-[1,2,4]triazolo[4,3-a]quinoxaline]
Human H4
  EC50: < 10 µM
Human H1
  EC50: > 10 µM

## CN1CCN(C2=Nc3ccc(Cl)cc3N3CCN=C23)CC1 [Example 5, 8-Chloro-4-(4-methylpiperazin-1-yl)-1,2-dihydroimidazo[1,2-a]quinoxaline]
Human H4
  EC50: < 10 µM
Human H1
  EC50: > 10 µM

## Cc1nc2c3cc(Cl)c(C(F)(F)F)cc3nc(N3CCN(C)CC3)n2n1 [Example 131, 9-chloro-2-methyl-5-(4-methylpiperazin-1-yl)-8-(trifluoromethyl)-[1,2,4]triazolo[1,5-c]quinazoline hydrochloride]
Human H4
  EC50: < 10 µM
Human H1
  EC50: > 10 µM

## C/C=C/c1ccc2nc(N3CCN(C)CC3)c3nncn3c2c1 [Example 174, (E)-4-(4-methylpiperazin-1-yl)-8-(prop-1-enyl)-[1,2,4]triazolo[4,3-a]quinoxaline]
Human H4
  EC50: < 10 µM
Human H1
  EC50: > 10 µM

## FC(F)(F)c1ccc2nc(N3CCNCC3)n3nc(C(F)(F)F)nc3c2c1 [Example 121, 5-(piperazin-1-yl)-2,9-bis(trifluoromethyl)-[1,2,4]triazolo[1,5-c]quinazoline]
Human H4
  EC50: > 10 µM
Human H1
  EC50: > 10 µM

## C=Cc1ccc2nc(N3CCN(C)CC3)n3nc(C)nc3c2c1 [Example 137, 2-methyl-5-(4-methylpiperazin-1-yl)-9-vinyl-[1,2,4]triazolo[1,5-c]quinazoline]
Human H4
  EC50: < 10 µM
Human H1
  EC50: > 10 µM

## Clc1ccc2nc(NC3CCNCC3)c3nncn3c2c1 [Example 73, 8-chloro-N-(piperidin-4-yl)-[1,2,4]triazolo[4,3-a]quinoxalin-4-amine]
Human H4
  EC50: > 10 µM
Human H1
  EC50: > 10 µM

## CNCCN(C)c1nc2ccc(Cl)cc2n2cnnc12 [Example 77, N^1-(8-chloro-[1,2,4]triazolo[4,3-a]quinoxalin-4-yl)-N^1,N^2-dimethylethane-1,2-diamine]
Human H4
  EC50: > 10 µM
Human H1
  EC50: > 10 µM

## CN1CCN(c2nc3ccc(C(F)(F)F)cc3c3nc(C(F)(F)F)nn23)CC1 [Example 120, 5-(4-methylpiperazin-1-yl)-2,9-bis(trifluoromethyl)-[1,2,4]triazolo[1,5-c]quinazoline]
Human H4
  EC50: < 10 µM
Human H1
  EC50: > 10 µM

## CN1CCN(c2nc3cc(Br)c(F)cc3n3cnnc23)CC1 [Example 199, 7-bromo-8-fluoro-4-(4-methylpiperazin-1-yl)-[1,2,4]triazolo[4,3-a]quinoxaline]
Human H4
  EC50: < 10 µM
Human H1
  EC50: > 10 µM

## Clc1ccc2nc(C3CCNCC3)c3nncn3c2c1 [Example 3, 8-Chloro-4-(piperidin-4-yl)-[1,2,4]triazolo[4,3-a]quinoxaline]
Human H4
  EC50: > 10 µM
Human H1
  EC50: > 10 µM

## Cc1nc2c(N3CCNCC3)nc3cc(F)c(Cl)cc3c2o1 [Example 217, 8-chloro-7-fluoro-2-methyl-4-(piperazin-1-yl)oxazolo[4,5-c]quinoline]
Human H4
  EC50: < 10 µM
Human H1
  EC50: > 10 µM

## CN1CCN(c2nc3cc(Br)ccc3n3nnnc23)CC1 [Example 195, 7-bromo-4-(4-methylpiperazin-1-yl)tetrazolo[1,5-a]quinoxaline]
Human H4
  EC50: < 10 µM
Human H1
  EC50: > 10 µM

## C=Cc1ccc2nc(N3CCN(C)CC3)c3nncn3c2c1 [Example 88, 4-(4-methylpiperazin-1-yl)-8-vinyl-[1,2,4]triazolo[4,3-a]quinoxaline]
Human H4
  EC50: < 10 µM
Human H1
  EC50: > 10 µM

## CC(C)c1nc2c3cc(Cl)ccc3nc(N3CCN(C)CC3)n2n1 [Example 116, 9-Chloro-2-isopropyl-5-(4-methylpiperazin-1-yl)-[1,2,4]triazolo[1,5-c]quinazoline]
Human H4
  EC50: > 10 µM
Human H1
  EC50: > 10 µM

## Clc1ccc2nc(N3CCNCC3)c3occc3c2c1 [Example 148, 8-Chloro-4-(piperazin-1-yl)furo[2,3-c]quinoline]
Human H4
  EC50: < 10 µM
Human H1
  EC50: > 10 µM

## Cc1nc2c(N3CCN(C)CC3)nc3ccc(Cl)cc3c2[nH]1 [Example 162, 8-Chloro-2-methyl-4-(4-methylpiperazinyl)imidazo[4,5-c]quinoline]
Human H4
  EC50: > 10 µM
Human H1
  EC50: > 10 µM

## CN1CCN(c2nc3cc(Cl)ccc3c3cccnc23)CC1 [Example 249, 8-chloro-5-(4-methylpiperazin-1-yl)benzo[f][1,7]naphthyridine]
Human H4
  EC50: < 10 µM
Human H1
  EC50: < 10 µM

## Cc1nc2c(N3CCN(C)CC3)nc3cc(F)c(Cl)cc3c2o1 [Example 216, 8-chloro-7-fluoro-2-methyl-4-(4-methylpiperazin-1-yl)oxazolo[4,5-c]quinoline]
Human H4
  EC50: < 10 µM
Human H1
  EC50: > 10 µM

## Fc1cc2nc(N3CCNCC3)c3nnnn3c2cc1F [Example 191, 7,8-difluoro-4-(piperazin-1-yl)tetrazolo[1,5-a]quinoxaline]
Human H4
  EC50: < 10 µM
Human H1
  EC50: > 10 µM

## Cc1nc2c(N3CCNCC3)nc3ccc(Cl)cc3n2n1 [Example 164, 8-chloro-2-methyl-4-(piperazin-1-yl)-[1,2,4]triazolo[1,5-a]quinoxaline]
Human H4
  EC50: < 10 µM
Human H1
  EC50: > 10 µM

## CCc1nc2c3cc(Cl)ccc3nc(N3CCNCC3)n2n1 [Example 115, 9-Chloro-2-ethyl-5-(piperazin-1-yl)-[1,2,4]triazolo[1,5-c]quinazoline]
Human H4
  EC50: < 10 µM
Human H1
  EC50: > 10 µM

## Cc1nc2c3cc(Cl)c(Cl)cc3nc(N3CCNCC3)n2n1 [Example 94, 8,9-Dichloro-2-methyl-5-(piperazin-1-yl)-[1,2,4]triazolo[1,5-c]quinazoline]
Human H4
  EC50: < 10 µM
Human H1
  EC50: > 10 µM

## CN1CC2CN(c3nc4ccc(Cl)cc4n4cnnc34)CC2C1 (stereo not drawn) [Example 62, 8-chloro-4-(5-methylhexahydropyrrolo[3,4-c]pyrrol-2(1H)-yl)-[1,2,4]triazolo[4,3-a]quinoxaline]
Human H4
  EC50: < 10 µM
Human H1
  EC50: > 10 µM

## CN1CCN(c2nc3cc(F)c(F)cc3n3nnnc23)CC1 [Example 190, 7,8-difluoro-4-(4-methylpiperazin-1-yl)tetrazolo[1,5-a]quinoxaline]
Human H4
  EC50: < 10 µM
Human H1
  EC50: > 10 µM

## Clc1ccc2nc(N3CCNCC3)n3nnnc3c2c1 [Example 12, 9-Chloro-5-(piperazin-1-yl)tetrazolo[1,5-c]quinazoline]
Human H4
  EC50: < 10 µM
Human H1
  EC50: > 10 µM

## Cc1nc2c3ccc(Cl)cc3nc(N3CCN(C)CC3)n2n1 [Example 105, 8-Chloro-2-methyl-5-(4-methylpiperazin-1-yl)-[1,2,4]triazolo[1,5-c]quinazoline]
Human H4
  EC50: < 10 µM
Human H1
  EC50: > 10 µM

## CN1CCN(c2nc3cc(C(F)(F)F)ccc3n3nnnc23)CC1 [Example 28, 4-(4-methylpiperazin-1-yl)-7-(trifluoromethyl)tetrazolo[1,5-a]quinoxaline]
Human H4
  EC50: < 10 µM
Human H1
  EC50: > 10 µM

## Cc1nc2c3ccc(F)cc3nc(N3CCNCC3)n2n1 [Example 108, 8-Fluoro-2-methyl-5-(piperazin-1-yl)-[1,2,4]triazolo[1,5-c]quinazoline]
Human H4
  EC50: > 10 µM
Human H1
  EC50: > 10 µM

## Clc1ccc2nc(N3CCNCC3)c3nccn3c2c1 [Example 8, 8-Chloro-4-(piperazin-1-yl)imidazo[1,2-a]quinoxaline]
Human H4
  EC50: < 10 µM
Human H1
  EC50: > 10 µM
